Test results reported in PubChem BioAssay AID2060499 (Molecular Pharmacology Branch, DTP, NCI, 2025).

Tested on: 777334-354-R2-J4-PDC tumor spheroids with HUVEC/MSC, viability
Experiment: Anticancer human tumor 777334-354-R2-J4-PDC patient-derived pancreatic adenocarcinoma cell line growth inhibition [GQUAD]
Conditions: for IC50: curve of first compound; for viability, T/C: stronger effect = lower value
Outline: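 Multi-cell-type spheroids of tumor cells with HUVEC and mesenchymal stem cells, treated with drug combinations. Concentrations descend in half-log steps from near clinical Cmax, or from 10 microM where Cmax is unknown; viability read-out.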

[1] = second compound 0.0316 µM, first compound 0.0316 µM
[2] = second compound 0.0316 µM, first compound 0.316 µM
[3] = second compound 0.1 µM, first compound 0.0316 µM
[4] = second compound 0.1 µM, first compound 0.316 µM
[5] = second compound 0.316 µM, first compound 0.0316 µM
[6] = second compound 0.316 µM, first compound 0.316 µM
[7] = second compound 1 µM, first compound 0.0316 µM
[8] = second compound 1 µM, first compound 0.316 µM
[9] = second compound 3.16 µM, first compound 0.0316 µM
[10] = second compound 3.16 µM, first compound 0.316 µM
[11] = second compound 10 µM, first compound 0.0316 µM
[12] = second compound 10 µM, first compound 0.316 µM
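Also: spheroids exposed to compounds for 7 days before readout.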

In the case of `CC1COCCN1c1cc(C2(S(C)(=N)=O)CC2)nc(-c2ccnc3[nH]ccc23)n1` (centres undefined) + Cc1[nH]c2ccc(F)cc2c1-c1nc2c3cccnc3c3ncccc3c2[nH]1, the IC50 (second compound 0.0316 µM) is reported as greater than 10000 nM, the IC50 (second compound 0.1 µM) is reported as greater than 10000 nM and the IC50 (second compound 0.316 µM) is reported as greater than 10000 nM. For the same compound, the IC50 (second compound 1 µM) was 7070 nM, the IC50 (second compound 3.16 µM) was less than 31.6 nM and the IC50 (second compound 10 µM) was less than 31.6 nM. For the same compound, the viability, T/C [1] was 109%, the viability, T/C (second compound 0.0316 µM, first compound 0.1 µM) was 98.9% and the viability, T/C [2] was 108%. The viability, T/C (second compound 0.0316 µM, first compound 1 µM) was 100%, the viability, T/C (second compound 0.0316 µM, first compound 3.16 µM) was 87.7% and the viability, T/C (second compound 0.0316 µM, first compound 10 µM) was 62.2%. For the same compound, the viability, T/C [3] was 113%, the viability, T/C (second compound 0.1 µM, first compound 0.1 µM) was 92.7% and the viability, T/C [4] was 118%. It also gave a viability, T/C (second compound 0.1 µM, first compound 1 µM) of 85.8%, a viability, T/C (second compound 0.1 µM, first compound 3.16 µM) of 94.5% and a viability, T/C (second compound 0.1 µM, first compound 10 µM) of 74.8%. It also gave a viability, T/C [5] of 94.8%, a viability, T/C (second compound 0.316 µM, first compound 0.1 µM) of 97.7% and a viability, T/C [6] of 88.3%. For the same compound, the viability, T/C (second compound 0.316 µM, first compound 1 µM) was 96.2%, the viability, T/C (second compound 0.316 µM, first compound 3.16 µM) was 89.9% and the viability, T/C (second compound 0.316 µM, first compound 10 µM) was 56%. It also gave a viability, T/C [7] of 88.7%, a viability, T/C (second compound 1 µM, first compound 0.1 µM) of 93.8% and a viability, T/C [8] of 87.1%. It also gave a viability, T/C (second compound 1 µM, first compound 1 µM) of 75.5%, a viability, T/C (second compound 1 µM, first compound 3.16 µM) of 67.9% and a viability, T/C (second compound 1 µM, first compound 10 µM) of 42.7%. For the same compound, the viability, T/C [9] was 41.8%, the viability, T/C (second compound 3.16 µM, first compound 0.1 µM) was 27.1% and the viability, T/C [10] was 35%. It also gave a viability, T/C (second compound 3.16 µM, first compound 1 µM) of 22.8%, a viability, T/C (second compound 3.16 µM, first compound 3.16 µM) of 25.8% and a viability, T/C (second compound 3.16 µM, first compound 10 µM) of 12%. For the same compound, the viability, T/C [11] was 36%, the viability, T/C (second compound 10 µM, first compound 0.1 µM) was 29.2% and the viability, T/C [12] was 29.6%. It also gave a viability, T/C (second compound 10 µM, first compound 1 µM) of 18.9%, a viability, T/C (second compound 10 µM, first compound 3.16 µM) of 20.7% and a viability, T/C (second compound 10 µM, first compound 10 µM) of 11.1%.

Work on `CCc1c2c(nc3ccc(O)cc13)-c1cc3c(c(=O)n1C2)COC(=O)[C@]3(O)CC` + Cc1[nH]c2ccc(F)cc2c1-c1nc2c3cccnc3c3ncccc3c2[nH]1 yielded an IC50 (second compound 0.0316 µM) of 5.58 nM, an IC50 (second compound 0.1 µM) of 6.14 nM and an IC50 (second compound 0.316 µM) of 5.57 nM. The IC50 (second compound 1 µM) was 3.44 nM, the IC50 (second compound 3.16 µM) was less than 0.999 nM and the IC50 (second compound 10 µM) was less than 0.999 nM. For the same compound, the viability, T/C (second compound 0.0316 µM, first compound 0.000999 µM) was 85.3%, the viability, T/C (second compound 0.0316 µM, first compound 0.00316 µM) was 54.5% and the viability, T/C (second compound 0.0316 µM, first compound 0.00999 µM) was 44.7%. The viability, T/C [1] was 27.3%, the viability, T/C (second compound 0.0316 µM, first compound 0.0999 µM) was 15% and the viability, T/C [2] was 9.55%. It also gave a viability, T/C (second compound 0.1 µM, first compound 0.000999 µM) of 92.8%, a viability, T/C (second compound 0.1 µM, first compound 0.00316 µM) of 60.4% and a viability, T/C (second compound 0.1 µM, first compound 0.00999 µM) of 45%. It also gave a viability, T/C [3] of 22.2%, a viability, T/C (second compound 0.1 µM, first compound 0.0999 µM) of 14.7% and a viability, T/C [4] of 9.29%. It also gave a viability, T/C (second compound 0.316 µM, first compound 0.000999 µM) of 83.6%, a viability, T/C (second compound 0.316 µM, first compound 0.00316 µM) of 60.9% and a viability, T/C (second compound 0.316 µM, first compound 0.00999 µM) of 38.2%. For the same compound, the viability, T/C [5] was 26.4%, the viability, T/C (second compound 0.316 µM, first compound 0.0999 µM) was 18.1% and the viability, T/C [6] was 11.1%. It also gave a viability, T/C (second compound 1 µM, first compound 0.000999 µM) of 70.7%, a viability, T/C (second compound 1 µM, first compound 0.00316 µM) of 51.1% and a viability, T/C (second compound 1 µM, first compound 0.00999 µM) of 34.9%. It also gave a viability, T/C [7] of 23.9%, a viability, T/C (second compound 1 µM, first compound 0.0999 µM) of 16.9% and a viability, T/C [8] of 8.25%. The viability, T/C (second compound 3.16 µM, first compound 0.000999 µM) was 34.4%, the viability, T/C (second compound 3.16 µM, first compound 0.00316 µM) was 20.1% and the viability, T/C (second compound 3.16 µM, first compound 0.00999 µM) was 15.9%. The viability, T/C [9] was 9.11%, the viability, T/C (second compound 3.16 µM, first compound 0.0999 µM) was 7.06% and the viability, T/C [10] was 4.83%. The viability, T/C (second compound 10 µM, first compound 0.000999 µM) was 26%, the viability, T/C (second compound 10 µM, first compound 0.00316 µM) was 17.6% and the viability, T/C (second compound 10 µM, first compound 0.00999 µM) was 13.1%. The viability, T/C [11] was 7.08%, the viability, T/C (second compound 10 µM, first compound 0.0999 µM) was 6.95% and the viability, T/C [12] was 5.09%.
